Values joined by “and” are separate entries in the source; they are usually repeats but may differ in a detail not shown here. Equal entries are not always repeated.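 All cell lines were grown in 96-well plates and treated with compound for 48 hours. GI50 is the concentration that inhibits growth by half. TGI is the concentration that stops growth completely.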 Where a SMILES comes first, the peptide text is derived from it. [ ]: non-standard residue; d: D form. The star is where a group is joined. ξ: configuration not given here. X16 = COC1=CC(=O)N(C(=O)C(O*)C(C)C)C1Cc1ccccc1; ξNMe2Val = CC(C)C(C(=O)*)N(C)C; NMeV = CN[CH](C(=O)O)C(C)C
What was measured:
Experiment in all cases: NCI-60 cell line screen, 48 h
OVCAR-5 ovarian = system: OVCAR-5 ovarian
NCI-H460 lung = system: NCI-H460 lung
K-562 leukemia = system: K-562 leukemia
KM12 colon = system: KM12 colon
EKVX NSCLC = system: EKVX NSCLC
SF-268 CNS = system: SF-268 CNS
SK-MEL-2 melanoma = system: SK-MEL-2 melanoma
HOP-92 NSCLC = system: HOP-92 NSCLC
SW-620 colon = system: SW-620 colon
UO-31 renal = system: UO-31 renal

Structure (SMILES)	TGI (OVCAR-5 ovarian) [µM]	TGI (NCI-H460 lung)	TGI (K-562 leukemia) [µM]	TGI (KM12 colon) [µM]	TGI (EKVX NSCLC) [µM]	TGI (SF-268 CNS) [µM]	TGI (SK-MEL-2 melanoma) [µM]	TGI (HOP-92 NSCLC) [µM]	TGI (SW-620 colon) [µM]	TGI (UO-31 renal) [µM]	GI50 (UO-31 renal) [µM]	GI50 (OVCAR-5 ovarian) [µM]	GI50 (NCI-H460 lung) [µM]	GI50 (KM12 colon) [µM]	GI50 (SF-268 CNS) [µM]	GI50 (SK-MEL-2 melanoma) [µM]	GI50 (HOP-92 NSCLC) [µM]	GI50 (SW-620 colon) [µM]	GI50 (K-562 leukemia) [µM]	GI50 (EKVX NSCLC) [µM]
COc1ccc2c(O)c3[n+](cc2c1OC)CCc1cc2c(cc1-3)OCO2	> 100	> 100 µM	> 100	> 100	> 100	> 100	> 100	> 100	> 100	–	–	–	–	–	–	–	–	–	–	–
COc1ccc(C(=O)C2CC3(CCC2(O)c2ccc(OC)cc2)CC(=O)Nc2ccccc2C3=O)cc1 (stereo not given)	> 100	> 100 µM	> 100	–	> 100	> 100	> 100	> 100	> 100	> 100	–	–	–	–	–	–	–	–	–	–
OCC(O)COc1ccc(Br)cc1 (stereo not given)	> 100	–	> 100	> 100	> 100	> 100	> 100	> 100	> 100	> 100	–	–	–	–	–	–	–	–	–	–
Nc1cc2c(cc1[N+](=O)[O-])[nH]c1c(-c3ccccc3)nccc12	98.3	39.2 µM	> 100	35.2	> 80.5	> 100	38.2	42.7	> 81.5	28.9	–	–	–	–	–	–	–	–	–	–
COC1=CC(=O)N(C(=O)C(OC(=O)C2CCCN2C(=O)C2CCCN2C(=O)C(C(C)C)N(C)C(=O)C(NC(=O)C(C(C)C)N(C)C)C(C)C)C(C)C)C1Cc1ccccc1 (stereo not given) (ξNMe2Val-V[NMeV]PP-X16; configuration not given here)	> 4	0.519 µM	–	> 4	3.95	0.31	–	–	> 4	> 4	> 4	> 4	< 0.0004	< 0.0004	< 0.0004	< 0.0004	0.000954	< 0.0004	–	–
Cc1ccc(N=Nc2c(O)c3ccccc3[nH]c2=O)c(S(=O)(=O)N(C)C)c1	> 100	> 100 µM	> 100	> 100	> 100	> 100	> 100	> 100	> 100	> 100	–	–	–	–	–	–	–	–	–	–
Cc1ccc(OP2(=O)Oc3ccc4ccccc4c3CN2c2ccc(Cl)cc2)cc1C (stereo not given)	> 100	> 100 µM	> 100	> 100	> 100	> 100	> 100	> 100	> 100	> 100	–	–	–	–	–	–	–	–	–	–
O=C(NCc1cn(Cc2cccc(Oc3ccccc3)c2)nn1)c1cccnc1Nc1ccccc1	> 100	10.5 µM	> 100	46.4	> 100	37.5	75.1	–	> 100	> 100	2.49	5.73	2.85	3.63	3.22	6.05	–	3.97	3.69	5.18
CCOc1ncn(-c2ccc(NC(=S)Nc3cccc(O)c3)cc2)n1	> 100	> 100 µM	> 100	> 100	> 100	> 100	–	> 100	> 100	> 100	–	–	–	–	–	–	–	–	–	–
COC[C@H]1C(=O)NCC(=O)N2NCCC[C@H]2C(=O)N(O)[C@H](C)C(=O)O[C@@H](C(C)C)[C@H](NC(=O)[C@](C)(O)[C@]2(O)CC[C@@H](CC(C)C)[C@H](C)O2)C(=O)N2NCCC[C@@H]2C(=O)N1O	0.0333	0.0125 µM	–	0.0241	–	–	0.0304	0.0377	–	0.0458	0.0192	0.015	< 0.01	0.01	–	0.0152	0.0161	–	–	–
CO/C(=N\N=C(/C)C(F)(F)F)c1ccncc1	> 100	> 100 µM	> 100	> 100	–	–	> 100	> 100	–	> 100	–	–	–	–	–	–	–	–	–	–
CC1(C)CCc2c(cc3c(c2O)CCC(C)(C)O3)O1	> 100	> 100 µM	> 100	> 100	> 100	> 100	98.3	–	> 100	> 100	–	–	–	–	–	–	–	–	–	–
C=C1CC2CC[C@@]34C[C@@H]5O[C@@H]6C(O[C@H]7CC[C@H](CC(=O)OC8[C@@H](C)C9OC%10C[C@]%11(C[C@@H]%12O[C@@]%13(C[C@@H](C)[C@@H]%12O%11)C[C@H](C)[C@@H]%11OC%12CC(C(O)CO)OC%12C[C@@H]%11O%13)OC%10CC9O[C@H]8C[C@H]8O[C@@H](CC[C@@H]1O2)C[C@@H](C)C8=C)O[C@@H]7[C@@H]6O3)C5O4 (stereo not given in full)	> 1.48	0.00317 µM and 0.028 µM	> 1.48	–	> 1.48	> 1.48	0.00727	> 1.48	> 1.48	> 1.48	0.505	> 1.48	< 0.000148	< 0.000148	< 0.000148	–	< 0.000148	< 0.000148	< 0.000148	< 0.000148
C=C/C(C)=C/[C@H](C)C(=O)C[C@H](O)CC1CC(=O)NC(=O)C1	> 100	> 100 µM	> 100	> 100	> 100	> 100	> 100	> 89.6	> 100	> 100	–	–	–	–	–	–	–	–	–	–
